From ChEMBL document CHEMBL4184323, “Structure-Guided Design, Synthesis, and Characterization of Next-Generation Meprin β Inhibitors” (J Med Chem, 2018)

Tests used:
[1] = target: T1, Meprin A subunit beta (Homo sapiens, UniProt Q16820)
T1 sequence (Q16820 whole entry): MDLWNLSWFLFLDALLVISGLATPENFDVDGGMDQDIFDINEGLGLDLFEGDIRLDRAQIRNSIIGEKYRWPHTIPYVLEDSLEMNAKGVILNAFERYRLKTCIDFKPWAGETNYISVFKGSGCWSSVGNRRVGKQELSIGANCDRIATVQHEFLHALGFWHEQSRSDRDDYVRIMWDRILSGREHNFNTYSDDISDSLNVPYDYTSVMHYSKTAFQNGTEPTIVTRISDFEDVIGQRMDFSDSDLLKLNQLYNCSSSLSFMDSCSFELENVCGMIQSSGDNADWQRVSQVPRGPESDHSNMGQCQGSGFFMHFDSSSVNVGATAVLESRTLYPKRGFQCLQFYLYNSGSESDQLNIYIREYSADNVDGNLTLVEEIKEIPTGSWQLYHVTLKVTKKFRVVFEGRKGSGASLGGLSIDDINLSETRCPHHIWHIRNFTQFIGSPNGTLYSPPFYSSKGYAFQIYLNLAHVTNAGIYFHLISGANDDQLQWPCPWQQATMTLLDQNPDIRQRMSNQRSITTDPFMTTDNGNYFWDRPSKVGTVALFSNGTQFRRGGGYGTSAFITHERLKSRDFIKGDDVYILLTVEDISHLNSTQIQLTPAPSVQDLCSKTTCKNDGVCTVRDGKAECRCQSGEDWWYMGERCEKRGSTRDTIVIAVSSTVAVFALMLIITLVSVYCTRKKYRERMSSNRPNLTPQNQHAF
Description: Inhibition of recombinant human meprin beta expressed in yeast using Abz-YVAEAPK(Dnp)G-OH as substrate by fluorescence assay

[2] = target: MMP2 (Homo sapiens, UniProt P08253); assay: Inhibition of human MMP2 assessed as residual activity using Mca-PLGL-(DapDnp)-AR-NH2 as substrate at 200 uM by fluorescence assay relative to control; details: human MMP2 enzyme, probe Mca-PLGL-(DapDnp)-AR-NH2, read-out: Activity
Chain of MMP2 (P08253 whole entry): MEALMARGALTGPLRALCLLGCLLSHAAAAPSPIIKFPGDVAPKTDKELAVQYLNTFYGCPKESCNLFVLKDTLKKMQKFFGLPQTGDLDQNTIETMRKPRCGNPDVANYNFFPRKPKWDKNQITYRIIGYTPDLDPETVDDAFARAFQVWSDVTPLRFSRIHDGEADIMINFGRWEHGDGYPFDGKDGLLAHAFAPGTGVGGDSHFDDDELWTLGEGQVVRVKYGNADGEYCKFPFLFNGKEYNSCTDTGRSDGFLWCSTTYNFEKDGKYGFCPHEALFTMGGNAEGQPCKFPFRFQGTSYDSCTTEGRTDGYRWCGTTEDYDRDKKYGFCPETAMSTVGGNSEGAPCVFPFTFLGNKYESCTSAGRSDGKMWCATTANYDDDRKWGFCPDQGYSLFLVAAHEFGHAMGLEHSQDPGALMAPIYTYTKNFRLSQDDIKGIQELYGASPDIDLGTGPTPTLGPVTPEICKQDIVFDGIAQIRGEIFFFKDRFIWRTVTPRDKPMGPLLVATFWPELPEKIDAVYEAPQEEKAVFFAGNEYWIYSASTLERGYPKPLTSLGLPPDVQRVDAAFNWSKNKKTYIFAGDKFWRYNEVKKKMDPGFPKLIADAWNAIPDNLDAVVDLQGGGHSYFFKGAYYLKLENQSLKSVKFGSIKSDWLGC

[3] = target: MMP9 (Homo sapiens, UniProt P14780); assay: Inhibition of human MMP9 assessed as residual activity using Mca-PLGL-(DapDnp)-AR-NH2 as substrate at 200 uM by fluorescence assay relative to control; details: human MMP9 enzyme, probe Mca-PLGL-(DapDnp)-AR-NH2, read-out: Activity
Chain of MMP9 (P14780 whole entry): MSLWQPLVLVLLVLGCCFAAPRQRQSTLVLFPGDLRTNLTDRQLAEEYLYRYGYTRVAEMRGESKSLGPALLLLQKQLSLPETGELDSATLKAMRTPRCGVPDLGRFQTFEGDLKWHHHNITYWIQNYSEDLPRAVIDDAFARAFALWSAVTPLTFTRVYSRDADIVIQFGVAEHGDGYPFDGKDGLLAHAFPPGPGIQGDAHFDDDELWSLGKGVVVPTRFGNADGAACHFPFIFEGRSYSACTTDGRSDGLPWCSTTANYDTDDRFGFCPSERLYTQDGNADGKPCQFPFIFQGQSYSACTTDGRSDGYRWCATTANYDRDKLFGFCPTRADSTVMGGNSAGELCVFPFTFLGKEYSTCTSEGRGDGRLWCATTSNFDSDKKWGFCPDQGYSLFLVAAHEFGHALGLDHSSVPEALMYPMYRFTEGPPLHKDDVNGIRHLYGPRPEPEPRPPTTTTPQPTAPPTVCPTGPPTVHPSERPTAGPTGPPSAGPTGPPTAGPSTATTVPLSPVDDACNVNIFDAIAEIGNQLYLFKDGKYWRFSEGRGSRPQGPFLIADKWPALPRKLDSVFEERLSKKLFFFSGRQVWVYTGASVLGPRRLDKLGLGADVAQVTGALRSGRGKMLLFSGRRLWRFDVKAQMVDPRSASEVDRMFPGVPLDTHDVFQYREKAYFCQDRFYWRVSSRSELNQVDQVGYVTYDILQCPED

[4] = target: MMP13 (Homo sapiens, UniProt P45452); assay: Inhibition of human MMP13 assessed as residual activity using Mca-PLGL-(DapDnp)-AR-NH2 as substrate at 200 uM by fluorescence assay relative to control; details: human MMP13 enzyme, probe Mca-PLGL-(DapDnp)-AR-NH2, read-out: Activity
[5] = target: T2, ADAM10 (Homo sapiens, UniProt O14672); assay: Inhibition of human ADAM10 assessed as residual activity using Abz-LANAVRSSSR-(DapDnp)-AR-NH2 as substrate at 200 uM by fluorescence assay relative to control; details: human ADAM10 enzyme, probe Abz-LANAVRSSSR-(DapDnp)-AR-NH2, read-out: Activity
T2 sequence (O14672 whole entry): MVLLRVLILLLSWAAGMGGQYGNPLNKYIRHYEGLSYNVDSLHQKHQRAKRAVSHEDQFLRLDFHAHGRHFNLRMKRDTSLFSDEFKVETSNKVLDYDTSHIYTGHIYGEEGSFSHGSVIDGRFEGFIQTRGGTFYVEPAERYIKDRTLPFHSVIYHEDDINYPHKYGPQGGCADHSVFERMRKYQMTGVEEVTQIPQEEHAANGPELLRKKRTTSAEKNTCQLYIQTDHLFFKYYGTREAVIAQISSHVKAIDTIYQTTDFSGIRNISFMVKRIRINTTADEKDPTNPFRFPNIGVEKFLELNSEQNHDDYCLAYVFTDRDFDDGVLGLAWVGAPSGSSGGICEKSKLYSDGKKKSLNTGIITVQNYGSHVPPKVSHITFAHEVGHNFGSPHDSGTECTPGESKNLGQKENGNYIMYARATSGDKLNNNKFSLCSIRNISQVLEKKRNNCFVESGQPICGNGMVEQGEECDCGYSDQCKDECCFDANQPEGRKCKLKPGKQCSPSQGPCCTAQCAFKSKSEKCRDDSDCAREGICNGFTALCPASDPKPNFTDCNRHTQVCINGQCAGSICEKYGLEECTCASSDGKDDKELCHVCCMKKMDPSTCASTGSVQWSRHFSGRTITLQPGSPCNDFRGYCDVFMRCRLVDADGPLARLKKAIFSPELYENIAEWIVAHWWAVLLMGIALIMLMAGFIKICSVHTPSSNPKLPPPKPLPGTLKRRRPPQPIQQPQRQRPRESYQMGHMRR

[6] = target: ADAM17 (Homo sapiens, UniProt P78536); assay: Inhibition of human ADAM17 assessed as residual activity using Abz-LANAVRSSSR-(DapDnp)-AR-NH2 as substrate at 200 uM by fluorescence assay relative to control; details: human ADAM17 enzyme, probe Abz-LANAVRSSSR-(DapDnp)-AR-NH2, read-out: Activity
Chain of ADAM17 (P78536 whole entry): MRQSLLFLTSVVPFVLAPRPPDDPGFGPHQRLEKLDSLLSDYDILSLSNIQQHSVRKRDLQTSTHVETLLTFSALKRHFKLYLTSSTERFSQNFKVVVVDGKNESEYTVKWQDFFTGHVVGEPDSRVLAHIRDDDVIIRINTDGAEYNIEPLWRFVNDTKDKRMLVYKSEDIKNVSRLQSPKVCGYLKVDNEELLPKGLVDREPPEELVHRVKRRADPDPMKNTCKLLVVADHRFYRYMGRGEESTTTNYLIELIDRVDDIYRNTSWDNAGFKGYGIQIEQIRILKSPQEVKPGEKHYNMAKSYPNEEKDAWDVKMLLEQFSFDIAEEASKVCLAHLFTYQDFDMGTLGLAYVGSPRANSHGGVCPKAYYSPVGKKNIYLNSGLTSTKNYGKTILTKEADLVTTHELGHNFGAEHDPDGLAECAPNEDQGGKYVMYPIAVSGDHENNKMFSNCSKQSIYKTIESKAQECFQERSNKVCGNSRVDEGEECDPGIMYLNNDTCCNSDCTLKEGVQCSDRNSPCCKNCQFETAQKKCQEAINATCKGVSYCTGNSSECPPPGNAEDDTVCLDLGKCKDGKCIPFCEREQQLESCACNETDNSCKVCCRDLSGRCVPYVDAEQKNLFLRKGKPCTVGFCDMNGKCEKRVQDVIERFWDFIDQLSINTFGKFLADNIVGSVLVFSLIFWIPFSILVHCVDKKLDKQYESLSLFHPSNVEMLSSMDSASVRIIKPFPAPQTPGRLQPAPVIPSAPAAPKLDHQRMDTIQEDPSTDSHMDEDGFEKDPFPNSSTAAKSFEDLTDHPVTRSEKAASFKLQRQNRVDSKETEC

[7] = target: CYP3A4 (Homo sapiens, UniProt P08684); assay: Inhibition of recombinant human CYP3A4 expressed in baculosomes assessed as residual activity at 25 uM using BOMCC substrate by fluorescence assay relative to control; type: ADME; details: probe BOMCC, read-out: Activity
Chain of CYP3A4 (P08684 whole entry): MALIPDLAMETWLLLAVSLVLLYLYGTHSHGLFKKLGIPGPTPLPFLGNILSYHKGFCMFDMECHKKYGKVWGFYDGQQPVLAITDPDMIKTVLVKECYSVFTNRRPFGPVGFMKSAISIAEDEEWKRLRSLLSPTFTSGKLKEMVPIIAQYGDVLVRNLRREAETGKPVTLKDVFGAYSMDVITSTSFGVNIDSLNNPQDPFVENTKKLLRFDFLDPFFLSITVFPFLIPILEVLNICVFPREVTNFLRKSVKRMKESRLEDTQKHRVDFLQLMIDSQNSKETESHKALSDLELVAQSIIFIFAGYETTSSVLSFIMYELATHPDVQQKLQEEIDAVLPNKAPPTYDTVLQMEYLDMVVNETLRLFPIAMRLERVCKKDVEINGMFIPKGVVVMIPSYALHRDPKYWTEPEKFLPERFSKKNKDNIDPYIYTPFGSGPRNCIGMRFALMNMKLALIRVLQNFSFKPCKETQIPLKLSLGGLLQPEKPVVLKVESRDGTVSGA

[8] = target: CYP2C9 (Homo sapiens, UniProt P11712); assay: Inhibition of recombinant human CYP2C9 expressed in baculosomes assessed as residual activity at 25 uM using BOMCC substrate by fluorescence assay relative to control; type: ADME; details: probe BOMCC, read-out: Activity
Chain of CYP2C9 (P11712 whole entry): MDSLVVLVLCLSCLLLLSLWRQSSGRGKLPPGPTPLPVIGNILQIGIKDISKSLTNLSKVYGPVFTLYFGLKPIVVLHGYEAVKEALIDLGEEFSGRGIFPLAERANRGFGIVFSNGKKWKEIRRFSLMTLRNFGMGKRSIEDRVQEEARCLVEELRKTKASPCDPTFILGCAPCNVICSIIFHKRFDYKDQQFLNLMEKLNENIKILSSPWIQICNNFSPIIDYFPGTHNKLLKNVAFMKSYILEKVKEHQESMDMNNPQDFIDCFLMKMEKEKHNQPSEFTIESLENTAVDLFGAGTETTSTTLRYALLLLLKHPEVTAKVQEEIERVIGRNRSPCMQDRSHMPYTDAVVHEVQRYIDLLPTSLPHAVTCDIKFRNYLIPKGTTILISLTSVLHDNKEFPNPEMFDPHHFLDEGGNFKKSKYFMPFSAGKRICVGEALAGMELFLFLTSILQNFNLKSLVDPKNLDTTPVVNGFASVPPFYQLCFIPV

[9] = test system: SH-SY5Y; assay: Cytotoxicity in human SH-SY5Y cells assessed as cell viability at 100 uM after 24 hrs by CytoTox-ONE-based assay relative to control; type: functional; details: read-out: Activity
[10] = test system: HepG2; assay: Cytotoxicity in human HepG2 cells assessed as cell viability at 100 uM after 24 hrs by CytoTox-ONE-based assay relative to control; type: functional; details: HepG2, 24 h, read-out: Activity
[11] = organism: Homo sapiens; assay: Selectivity ratio of IC50 for recombinant human meprin alpha expressed in insect cells to IC50 for recombinant human meprin beta expressed in yeast
[12] = target: T3, BMP1 (Homo sapiens, UniProt P13497); assay: Inhibition of human BMP1 expressed in Escherichia coli assessed as residual activity using Abz-YVADAPK(Dnp)G-OH as substrate at 200 uM by fluorescence assay relative to control; details: probe Abz-YVADAPK(Dnp)G-OH, read-out: Activity
T3 sequence (P13497 whole entry): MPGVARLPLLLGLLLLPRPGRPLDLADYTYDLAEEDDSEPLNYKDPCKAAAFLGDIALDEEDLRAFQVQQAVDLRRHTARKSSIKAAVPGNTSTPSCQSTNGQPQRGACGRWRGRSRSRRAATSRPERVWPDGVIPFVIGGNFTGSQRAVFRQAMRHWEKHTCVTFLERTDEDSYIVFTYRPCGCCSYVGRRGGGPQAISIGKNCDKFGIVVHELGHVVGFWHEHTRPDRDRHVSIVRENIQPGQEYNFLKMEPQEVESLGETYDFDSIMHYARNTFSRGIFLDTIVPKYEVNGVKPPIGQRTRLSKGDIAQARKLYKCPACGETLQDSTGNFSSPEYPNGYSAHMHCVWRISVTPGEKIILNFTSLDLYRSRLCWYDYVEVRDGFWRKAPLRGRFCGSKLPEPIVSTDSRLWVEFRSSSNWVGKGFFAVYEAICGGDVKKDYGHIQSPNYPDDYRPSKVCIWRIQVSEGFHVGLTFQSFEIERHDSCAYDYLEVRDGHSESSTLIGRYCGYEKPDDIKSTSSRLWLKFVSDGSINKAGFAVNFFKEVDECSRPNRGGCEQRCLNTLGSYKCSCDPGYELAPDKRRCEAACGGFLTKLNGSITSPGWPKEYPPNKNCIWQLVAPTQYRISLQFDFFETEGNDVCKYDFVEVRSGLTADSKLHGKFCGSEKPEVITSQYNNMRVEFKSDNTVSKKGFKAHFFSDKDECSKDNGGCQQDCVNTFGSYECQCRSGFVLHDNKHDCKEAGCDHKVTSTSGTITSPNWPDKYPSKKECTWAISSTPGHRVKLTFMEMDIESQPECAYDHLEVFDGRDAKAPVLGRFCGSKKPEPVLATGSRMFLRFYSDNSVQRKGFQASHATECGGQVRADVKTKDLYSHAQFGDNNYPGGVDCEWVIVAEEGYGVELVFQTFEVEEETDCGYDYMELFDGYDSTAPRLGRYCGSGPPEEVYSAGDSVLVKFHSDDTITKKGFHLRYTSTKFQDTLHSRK

[13] = Drug absorption in Sprague-Dawley rat at 10 mg/kg, po by LC-MS analysis; type: ADME, organism-based; details: in vivo, read-out: Fabs
[14] = Cmax in Sprague-Dawley rat at 10 mg/kg, po by LC-MS analysis; type: ADME, organism-based; set-up: dose 10 mg/kg, route oral; details: in vivo
[15] = Tmax in Sprague-Dawley rat at 10 mg/kg, po by LC-MS analysis; type: ADME, organism-based; details: in vivo
[16] = test system: Rattus norvegicus; assay: Volume of distribution in Sprague-Dawley rat at 10 mg/kg, po by LC-MS analysis; type: ADME, organism-based; details: in vivo
[17] = Half life in Sprague-Dawley rat at 6 mg/kg, iv by LC-MS analysis; type: ADME, organism-based; details: in vivo
[18] = Clearance in Sprague-Dawley rat at 6 mg/kg, iv by LC-MS analysis; type: ADME, organism-based; details: in vivo
[19] = Volume of distribution at steady state in Sprague-Dawley rat at 6 mg/kg, iv by LC-MS analysis; type: ADME, organism-based; details: in vivo, read-out: Vdss
[20] = test system: SH-SY5Y; assay: Cytotoxicity in human SH-SY5Y cells assessed as cell viability at 30 uM after 24 hrs by CytoTox-ONE-based assay relative to control; type: functional; details: read-out: Activity
[21] = test system: HepG2; assay: Cytotoxicity in human HepG2 cells assessed as cell viability at 30 uM after 24 hrs by CytoTox-ONE-based assay relative to control; type: functional; details: HepG2, 24 h, read-out: Activity
[22] = Drug absorption in Sprague-Dawley rat at 10 mg/kg, ip by LC-MS analysis; type: ADME, organism-based; details: in vivo, read-out: Fabs
[23] = Cmax in Sprague-Dawley rat at 10 mg/kg, ip by LC-MS analysis; type: ADME, organism-based; set-up: dose 10 mg/kg, route intraperitoneal; details: in vivo
[24] = Tmax in Sprague-Dawley rat at 10 mg/kg, ip by LC-MS analysis; type: ADME, organism-based; details: in vivo

Row | Structure (SMILES) | IC50 [1] | activity at 200 µM [2] | activity at 200 µM [3] | activity at 200 µM [4] | activity at 200 µM [5] | activity at 200 µM [6] | activity at 25 µM [7] | activity at 25 µM [8] | also measured
1 | CCCOc1cccc(CN(CC(=O)NO)Cc2cccc(C(=O)O)c2)c1 | 2250 nM |  |  |  |  |  |  |  | 
2 | Cc1ccc(CN(CC(=O)NO)Cc2cccc(C(=O)O)c2)cc1 | 386 nM |  |  |  |  |  |  |  | 
3 | COc1ccc(CN(CC(=O)NO)Cc2cccc(C(=O)O)c2)cc1 | 77 nM | 68% | 85% | 94% | 87% | 60% | 80% | 102% | viability at 100 µM [9]: 87%; viability at 100 µM [10]: 100%; Ratio IC50 [11]: 40
4 | O=C(CN(Cc1ccc(C(=O)O)cc1)Cc1ccc(C(=O)O)cc1)NO | 524 nM |  |  |  |  |  |  |  | 
5 | O=C(CN(Cc1ccc(F)c(O)c1F)Cc1ccc(F)c(O)c1F)NO |  | 67% | 94% | 102% | 99% | 92% | 87% | 101% | activity at 200 µM [12]: 34%; Fa [13]: 5%; Cmax [14]: 1080 ng/mL; Tmax [15]: 7.8 min; Vd [16]: 0.045 L; half-life [17]: 66 min; clearance [18]: 21.8 mL/min/kg; Vd [19]: 0.41 L/kg; viability at 30 µM [20]: 92%; viability at 30 µM [21]: 99%
6 | COc1ccc(S(=O)(=O)N(CC(=O)NO)Cc2cccc(C(=O)O)c2)cc1 |  | < 1% | 2% | < 1% | < 1% | < 1% |  |  | 
7 | COc1ccc(CN(CC(=O)NO)Cc2cccc(C(=O)O)c2)cc1F | 375 nM |  |  |  |  |  |  |  | 
8 | O=C(CN(Cc1ccc(Cl)c(O)c1F)Cc1ccc(Cl)c(O)c1F)NO |  | 41% | 81% | 93% | 97% | 82% | 76% | 68% | activity at 200 µM [12]: 50%; Fa [13]: 9%; Cmax [14]: 810 ng/mL; Tmax [15]: 15 min; Vd [16]: 0.058 L; Fa [22]: 84%; Cmax [23]: 10900 ng/mL; Tmax [24]: 10.2 min; half-life [17]: 114 min; clearance [18]: 21 mL/min/kg; Vd [19]: 0.33 L/kg; viability at 30 µM [20]: 93%; viability at 30 µM [21]: 101%
9 | COc1cc(F)c(CN(CC(=O)NO)Cc2cccc(C(=O)O)c2)c(F)c1 | 347 nM |  |  |  |  |  |  |  | 
10 | O=C(CN(Cc1ccc(-c2ccccc2)cc1)Cc1cccc(C(=O)O)c1)NO | 1280 nM |  |  |  |  |  |  |  | 
11 | COc1c(Cl)ccc(CN(CC(=O)NO)Cc2ccc(Cl)c(OC)c2F)c1F | 12800 nM |  |  |  |  |  |  |  | 
12 | O=C(CN(Cc1ccc(Cl)cc1)Cc1cccc(C(=O)O)c1)NO |  | 69% | 88% | 78% | 95% | 57% | 79% | 77% | viability at 30 µM [20]: 97%; viability at 30 µM [21]: 104%
